Legend:
Plasmodium falciparum [1] = test: ST_JUDE: Plasmodium falciparum K1 EC50 (uM) as measured by SYBR green dye; type: functional, organism-based
Plasmodium falciparum [2] = test: ST_JUDE: Plasmodium falciparum 3D7 EC50 (uM) as measured by SYBR green dye; type: functional, organism-based

Compound | EC50 (Plasmodium falciparum [1]) | EC50 (Plasmodium falciparum [2])
Cc1cccc2sc(N(Cc3cccnc3)C(=O)C3CCCCC3)nc12 | 2.42 µM | 3.44 µM
CC1CCN(C(=O)c2cc(COc3ccc(F)cc3F)on2)CC1 | > 15 µM | > 15 µM
N#Cc1cccc(NC(=O)C2c3ccccc3C(=O)N(C3CCCC3)C2c2cccs2)c1 (stereo not given) | 0.253 µM | 0.188 µM
CCCCOc1ccc(C(=O)Nc2ccccc2Oc2ccccc2)cc1 | 1.75 µM | > 15 µM
CC(=O)Nc1ccc(Nc2c3ccccc3nc3ccccc23)cc1 | 1.37 µM | 2.69 µM
CCN(CC)CCN1C(=O)c2oc3ccccc3c(=O)c2C1c1cccc(Cl)c1 (stereo not given) | 1.08 µM | 0.984 µM
CCOC(=O)c1ccc(NC(=O)c2cc([N+](=O)[O-])ccc2NC(=O)CNC2CCN(Cc3ccccc3)CC2)cc1 | 3.68 µM | 1.27 µM
COc1ccc2c(=O)cc(C(Cl)(Cl)Cl)oc2c1 | 1.54 µM | > 15 µM
COc1cc2nnc(/C=C/C(C)=O)c(-c3ccc(C)o3)c2cc1OC | > 15 µM | > 15 µM
COc1cc(/C=C(\C#N)c2nc3ccccc3[nH]2)cc(Br)c1OCC#N | > 15 µM | > 15 µM
CSc1cccc(NC(=O)Cn2c(C)c(C=O)c3ccccc32)c1 | 4.29 µM | 4.56 µM
Cc1cccc(NC(c2ccc(Cl)cc2)c2ccc3cccnc3c2O)n1 (stereo not given) | 3.14 µM | 3.54 µM
COc1cc(SC)ccc1C(=O)N1CCCC(C)C1 (stereo not given) | > 15 µM | 9.81 µM
CCOC(=O)c1ccc2nc(C)cc(Nc3ccc(C)cc3C)c2c1 | > 15 µM | > 15 µM
COc1ccc2c(c1OC)C(=O)N1c3ccccc3N=C(c3ccc(C)cc3)CC21 (stereo not given) | 1.7 µM | 2.53 µM
CCS(=O)(=O)Nc1ccc(C2=NN(C(=O)c3ccco3)C(c3ccc(F)cc3)C2)cc1 (stereo not given) | 6.12 µM | > 15 µM
Cc1nnc(NCCN2CCOCC2)nc1O | > 15 µM | > 15 µM
CCOC(=O)c1ccc(NC(=O)Cc2csc(NC(=O)Nc3ccccc3)n2)cc1 | > 15 µM | > 15 µM
COc1cccc(Nc2nc(N3CCN(CCO)CC3)nc3c2cnn3-c2ccccc2)c1 | 4.71 µM | 3.31 µM
CCCc1cc(O)nc(-n2nc(C)cc2NC(=O)c2cc(C(F)(F)F)cc(C(F)(F)F)c2)n1 | > 15 µM | > 15 µM
CCc1ccc2nc(N(Cc3cccnc3)C(C)=O)sc2c1 | > 15 µM | > 15 µM
COc1ccc(NC2=C(N3CCOCC3)C(=O)c3ccccc3C2=O)cc1 | 0.286 µM | > 15 µM
CCOC(=O)C(C)Sc1nc2ccccc2c(=O)n1CC1CCCCC1 (stereo not given) | > 15 µM | > 15 µM
COc1cc(-c2nc(-c3ccccc3)c(-c3ccccc3)[nH]2)cc(OC)c1OC | > 15 µM | > 15 µM

Compound | EC50 (Plasmodium falciparum [1]) | EC50 (Plasmodium falciparum [2])
CC(C)OC(=O)c1cc(NC(=S)Nc2ccc([N+](=O)[O-])cc2)cc(C(=O)OC(C)C)c1 | 1.55 µM | > 15 µM
COc1ccc(S(=O)(=O)Nc2ccc(Nc3nc(C)cc(Nc4ccc(C)cc4)n3)cc2)cc1 | 7.51 µM | 0.618 µM
COc1ccccc1/C=C/C(=O)Nc1ccc(Cl)c(C(F)(F)F)c1 | > 15 µM | > 15 µM
CCCC(=O)NC(c1ccc(C(C)C)cc1)c1cc(Cl)c2cccnc2c1O (stereo not given) | > 15 µM | > 15 µM
Cc1nc2sc(C(c3ccc(Cl)cc3)N3CCC4(CC3)OCCO4)c(O)n2n1 (stereo not given) | > 15 µM | > 15 µM
CCCOCc1cc(CN2CCN(c3cccc(Cl)c3)CC2)c(O)c2ncccc12 | 0.896 µM | 1.1 µM
CCCN1CCN(CCCNC(=S)Nc2ccc3nc(N4CCN(C)CC4)cc(C)c3c2)CC1 | 6.85 µM | 5.43 µM
O=C(O)c1cccc(NC2=C(n3nnc4ccccc43)C(=O)c3ccccc3C2=O)c1 | 4.19 µM | > 15 µM
CCCc1cc(O)nc(-n2nc(C)cc2NC(=O)c2ccccc2F)n1 | > 15 µM | > 15 µM
COc1cc(CNc2cccc(Cl)c2)cc(I)c1OC | 4.1 µM | 3.96 µM
COC(=O)c1ccc(OCC2c3cc(OC)c(OC)cc3CCN2C(=O)Nc2ccccc2)cc1 (stereo not given) | 2.93 µM | 4.83 µM
CC(C)CN1CCN(Cc2cc(Cl)ccc2O)CC1CCO (stereo not given) | 4.82 µM | > 15 µM
Cc1ccc2c(c1)c(-c1ccccc1)c(-c1ccccc1)n2CC(O)CNCCc1ccccc1 (stereo not given) | 0.602 µM | 1.41 µM
Cc1cc(Cn2ccnc2)c(C)c([N+](=O)[O-])c1Cn1ccnc1 | > 15 µM | > 15 µM
COc1ccc(CCN2COc3c(cc4c(C)c(C)c(=O)oc4c3C)C2)cc1 | 0.802 µM | 6.95 µM
COc1ccc(-n2c(=O)c3c4c(sc3n3c(SCc5ccccc5)nnc23)COC(C)(C)C4)cc1 | > 15 µM | 11.3 µM
CC(=O)NC(c1ccccc1Cl)c1ccc2cccnc2c1O (stereo not given) | 3.79 µM | 3.39 µM
C[n+]1ccn2c3c(c4cc(C5CCCCC5)ccc42)CCCc31 | 2.34 µM | > 15 µM
CC(C)=CCN1CCC(C(=O)Nc2ccc(-c3nc4ccccc4[nH]3)cc2)CC1 | 6.76 µM | 1.34 µM
COc1ccc(-n2c(N)c(C#N)c3nc4ccccc4nc32)cc1 | 1.61 µM | 0.487 µM
CC(=O)C1=C(C)NC(SCC(=O)c2cccc([N+](=O)[O-])c2)=C(C#N)C1c1ccc(Cl)cc1 (stereo not given) | 6.73 µM | > 15 µM
CSc1nc(SC)c2c3c(sc2n1)CN(C)CC3 | 4.75 µM | 4.16 µM
O=C(N/N=C/c1ccc([N+](=O)[O-])o1)c1ccc(O)cc1 [NIFUROXAZIDE] | 3.77 µM | > 15 µM
COc1ccc(OC)c(C2CC(=O)C3=C(C2)NC(=O)CC3c2ccc([N+](=O)[O-])cc2)c1 (stereo not given) | 1.53 µM | > 15 µM

Compound | EC50 (Plasmodium falciparum [1]) | EC50 (Plasmodium falciparum [2])
O=C(C1CCCCC1)N(Cc1cccnc1)c1nc2c(Cl)cccc2s1 | 2.33 µM | 2.36 µM
COc1ccc(S(=O)(=O)n2nc(-c3ccc(Cl)cc3)cc2N)cc1OC | > 15 µM | 6.54 µM
CCOc1ccccc1C(=O)Nc1cc2c3c(c1)CCN3C(=O)CC2 | > 15 µM | > 15 µM
OC(CNCc1ccccc1)Cn1c2ccccc2c2ccccc21 (stereo not given) | 0.81 µM | 3.76 µM
Cc1cc(C)c2nc(NC(=O)CSc3ccc(F)cc3)sc2c1 | > 15 µM | > 15 µM
CO/C(O)=C1\C(C)=NC2=C(C(=O)CC(c3ccc(OC)c(OC)c3)C2)C1c1cccc(Cl)c1 (stereo not given) | 3.46 µM | 4.1 µM
CC(NC(=S)Nc1cccc([N+](=O)[O-])c1)c1ccc(C(C)(C)C)cc1 (stereo not given) | 6.22 µM | > 15 µM
CCOc1ccc(Nc2cc(C)nc(-n3nc(C)cc3C)n2)cc1 | 4.99 µM | 5.02 µM
Cc1cc(N2CCN(C)CC2)nc2ccc(NC(=O)c3cccc(N(C)C)c3)cc12 | 6.32 µM | 0.62 µM
Cc1ccc(S(=O)(=O)NCC(c2cccnc2)N2CCN(c3ccccc3F)CC2)cc1 (stereo not given) | > 15 µM | > 15 µM
CCN1CCN(c2cc(C)c3cc(NC(=S)NCCCN4CC(C)CC(C)C4)ccc3n2)CC1 (stereo not given) | > 15 µM | 5.34 µM
CC1CCN(CCCNc2cc(NCCO)c([N+](=O)[O-])c3nonc23)CC1 | > 15 µM | > 15 µM
O=C(Nc1ccc(-c2nc3cc(NC(=O)c4ccc(Br)o4)ccc3[nH]2)cc1)c1ccc(Br)o1 | 3.23 µM | 2.59 µM
O=C1CC(c2ccc(C(F)(F)F)cc2)C2=C(CC(c3ccccc3Cl)CC2=O)N1 (stereo not given) | 0.828 µM | 1.66 µM
CCCCOc1ccc(S(=O)(=O)Nc2ccc(Nc3nc(C)cc(N4CCCC4)n3)cc2)cc1 | > 15 µM | 1.41 µM
CN(C)CCCNC(=O)c1cc(-c2ccc(Cl)s2)nc2ccccc12 | > 15 µM | > 15 µM
COc1ccc(-c2cc(=O)oc3c4c(ccc23)OCN(Cc2ccc(F)cc2)C4)cc1 | 1.06 µM | 5.21 µM
CCN(CC)c1cc(C)c2cc(NC(=O)c3cccc(F)c3)ccc2n1 | 8.08 µM | 1.99 µM
Cc1cccc(NS(=O)(=O)c2cc3c4c(c2)CCN4C(=O)CC3)c1 | > 15 µM | > 15 µM
CCCOc1ccccc1C(=O)Nc1nonc1-c1ccc(OCC)c(OCC)c1 | 0.595 µM | > 15 µM
COCCN1C(=O)c2ccccc2C(C(=O)Nc2ccc(OC)c(Cl)c2)C1c1cccs1 (stereo not given) | 2.48 µM | 2.01 µM
Oc1ccc(Cl)cc1Nc1nc(C(F)(F)F)nc2ccccc12 | 0.638 µM | 1.2 µM
